Laboratory results as given in patent US20170334899A1, “AMINO-SUBSTITUTED ISOTHIAZOLES” (Bayer Pharma Aktiengesellschaft, priority 2014, published 2017).

Biological target: T1, CDK2/CycE (Homo sapiens, UniProt P24941)
T1 construct: GST; purchased ProQinase GmbH (Freiburg, Germany); host or cells: insect cells (Sf9)
Test: CDK2/CycE kinase assay (TR-FRET)
Format: biochemical
Conditions: avg, read-out: CDK2 avg (IC50 [mol/l])
Summary of the method: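 Read-out is a TR-FRET 665/620 nm emission ratio from EDTA-stopped reactions detected with anti-pRB(pSer807/pSer811), Eu-labelled anti-mouse IgG and streptavidin-XL665, scaled between no-enzyme and uninhibited wells. Reaction: Sf9-expressed GST-CDK2/GST-CycE, 15 min compound preincubation, 10 μM ATP, 0.75 μM biotin-peptide, 25 min, 22° C., pH 8.0 Tris buffer.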

IC50: > 20 µM
Structure (SMILES): CCCN1CCC(COc2ccc(NC(=O)c3c(C)nsc3Nc3cnc(C(F)(F)F)cn3)cn2)C(F)(F)C1 (stereo not shown) [Example 394, N-{6-[(3,3-difluoro-1-propylpiperidin-4-yl)methoxy]pyridin-3-yl}-3-methyl-5-{[5-(trifluoromethyl)pyrazin-2-yl]amino}-1,2-thiazole-4-carboxamide]
